Reference: patent US8685924B2, “Preventives/remedies for stress urinary incontinence and method of screening the same” (Takeda Pharmaceutical Company Limited, priority 2004, dated 2014)

Legend:
Type in all cases: in vivo, rat
[1] = test system: urethane-anesthetized female rats; experiment: Antagonism of the leak point pressure increase by WAY-161503 / WAY-163909, direct bladder compression method (Example 4); settings: for leak point pressure after drug administration / leak point pressure increase / leak point pressure before drug administration: i.v., mean ± SEM; for leak point pressure before drug administration: baseline; for dose at which suppression of the leak point pressure increase was significant: intravenous
Procedure: (§1) SD female rats (body weight 180-350 g) were anesthetized with urethane (Wako Pure Chemical Industries, Ltd.), and halothane (Takeda Pharmaceutical Company Limited) anesthesia was added when necessary during operation.
(§2) The spinal cord was transected at T8-9 level to eliminate the reflex voiding. The lower abdomen was incised in the median line, a catheter for intravesical pressure measurement (PE-90, Clay Adams) was inserted into the bladder and secured with a ligature, and the intravesical pressure was measured via a pressure transducer. Urine was emptized in advance by bilaterally pressing the bladder with two swabs, and a 0.1% Evans blue (Merck) solution (0.4 mL) was injected into the bladder. The bladder was gradually compressed bilaterally with two swabs, and the intravesical pressure upon saline leakage from the urethral orifice was measured and defined as a leak point pressure. The measurement of the leak point pressure was repeated, and the average value of the final five stable measures was taken as the value before drug administration. Thereafter, the drug was intravenously administered, the leak point pressure was measured again 20 min later, and the value after the drug administration was determined. DOI, mCPP and eltoprazine were dissolved in saline, and other drugs were dissolved in DMA/PEG400 (1:1), and intravenously administered at 1 ml/kg and 0.5 mg/kg, respectively. Depending on the experiment, RS-102221 or SB221284 (showing serotonin 5-HT2C receptor antagonist activity) was administered, 5 min later, WAY-161503 or WAY-163909 was administered, leak point pressure was measured 10 min later, and a competitive assay with the action of WAY-161503 or WAY-163909 was performed. RS-102221 and SB221284 were both dissolved in DMA/PEG400 (1:1), and intravenously administered at 0.5 ml/kg.

[2] = test system: urethane-anesthetized female rats; experiment: Antagonism of the leak point pressure increase by WAY-161503 / WAY-163909, abdominal wall-electrically stimulating method (Example 3); settings: for leak point pressure after drug administration / leak point pressure increase / leak point pressure before drug administration: i.v., mean ± SEM; for leak point pressure before drug administration: baseline
Procedure: (§3) SD female rats (body weight 180-350 g) were anesthetized with urethane (Wako Pure Chemical Industries, Ltd.), and the spinal cord was transected at T8-9 level to eliminate the reflex voiding. In addition, the nerve to the iliococcygeus muscle/pubococcygeus muscle on the one side was transected. During operation, halothane (Takeda Pharmaceutical Company Limited) anesthesia was added when necessary. A catheter (PE-90, Clay Adams) was inserted into the bladder and secured with a ligature, and the incised part of each of the abdominal muscle and skin was closed with sutures. The abdominal skin near the diaphragm was incised at two left and right positions to newly expose the abdominal muscle. An Evans Blue dye (Merck) solution was injected into the bladder, and the bladder volume was adjusted to 0.2-0.3 ml. The bladder catheter was connected to a pressure transducer, and the signals of the transducer were sent to a computer via an amplifier (blood pressure amplification unit AP-641G; NIHON KOHDEN) and an analog-to-digital converter (BIOPAC; MP100), and recorded on a hard disc. The data were analyzed on a computer using software (BIOPAC; AcqKnowledge). The exposed abdominal muscle was electrostimulated using an electrostimulator (SEN-3301; NIHON KODEN) and an isolator (SS-202J; NIHON KODEN), and the presence or absence of incontinence from the meatus urethra was observed. The electrostimulation was applied at a voltage of 2.5-50 V, duration of 0.5 milisec, and frequency 50 Hz for 1 sec, thereby gradually increasing the intravesical pressure. The peak intravesical pressure during stimulation of the abdominal wall was measured and, of the trials with observed incontinence, the lowest peak intravesical pressure was defined as the leak point pressure. Serotonin 5-HT receptor agonist, WAY-161503 (5-HT2C receptor agonist), WAY-163909 (5-HT2C receptor agonist), DOI (5-HT2A/2B/2C receptor agonist), mCPP (5-HT2B/2C receptor partial agonist), eltoprazine (5-HT1A/1B/2C receptor partial agonist), 8-OH-DPAT (5-HT1A receptor agonist), sumatryptan (5-HT1B/1D receptor agonist) and BW723C86 (5-HT2B receptor agonist) were intravenously administered, and the leak point pressure was compared before and after the administration. DOI, mCPP and eltoprazine were dissolved in saline, and other drugs were dissolved in DMA/PEG400 (1:1), and they were intravenously administered at 1 ml/kg and 0.5 mg/kg, respectively. Depending on the experiment, RS-102221 (serotonin 5-HT2C receptor antagonist) or SB221284 (serotonin 5-HT2B/2C receptor antagonist) was intravenously administered 5 min before WAY-161503 or WAY-163909 administration, and an antagonistic effect against the WAY-161503 or WAY-163909-induced increment of the leak point pressure was examined. RS-102221 and SB221284 were both dissolved in DMA/PEG400 (1:1) and intravenously administered at 0.5 ml/kg.

[3] = test system: urethane-anesthetized female rats; experiment: Leak point pressure by abdominal wall-electrically stimulating method, serotonin 5-HT receptor agonists (Example 3); settings: for leak point pressure after drug administration / leak point pressure increase / leak point pressure before drug administration: i.v., mean ± SEM; for leak point pressure before drug administration: baseline
Procedure: as §3

[4] = test system: urethane-anesthetized female rats; experiment: Leak point pressure by direct compressing of the bladder (Example 4); settings: for leak point pressure after drug administration / leak point pressure increase / leak point pressure before drug administration: i.v., mean ± SEM; for leak point pressure after drug administration: 20 min later; for leak point pressure before drug administration: baseline
Procedure: as §1, §2

[5] = antagonist 1 mg/kg, i.v. 5 min before WAY-161503 0.3 mg/kg
[6] = antagonist 1 mg/kg, i.v. 5 min before WAY-163909 0.3 mg/kg
[7] = antagonist 3 mg/kg, i.v. 5 min before WAY-161503 0.3 mg/kg
[8] = antagonist 3 mg/kg, i.v. 5 min before WAY-163909 0.3 mg/kg
[9] = antagonist alone 3 mg/kg, agonist: solvent, WAY-161503 series
[10] = antagonist alone 3 mg/kg, agonist: solvent, WAY-163909 series
[11] = antagonist 1 mg/kg, i.v. + WAY-161503 0.3 mg/kg
[12] = antagonist 3 mg/kg, i.v. + WAY-161503 0.3 mg/kg
[13] = antagonist 3 mg/kg, i.v. + WAY-163909 0.3 mg/kg

## COc1cc(OC)c(C(=O)CCCCN2CCC3(CC2)NC(=O)NC3=O)cc1NS(=O)(=O)c1ccc(C(F)(F)F)cc1 [RS102221]
[1]; [5]
  leak point pressure after drug administration: 67.5 ± 5.4 cmH2O
  leak point pressure increase: 12.8 ± 1.9 cmH2O
[1]; [6]
  leak point pressure after drug administration: 74.1 ± 3.4 cmH2O
  leak point pressure increase: 11.6 ± 2.4 cmH2O
[1]; [7]
  leak point pressure after drug administration: 70.5 ± 1.8 cmH2O
  leak point pressure increase: 9.8 ± 2.7 cmH2O
[1]; [8]
  leak point pressure after drug administration: 70.9 ± 3.0 cmH2O
  leak point pressure increase: 7.4 ± 1.4 cmH2O
[1]; [9]
  leak point pressure after drug administration: 60.7 ± 6.2 cmH2O
  leak point pressure increase: 3.8 ± 1.9 cmH2O
  leak point pressure before drug administration: 56.8 ± 5.5 cmH2O
[1]; [10]
  leak point pressure after drug administration: 59.2 ± 6.6 cmH2O
  leak point pressure increase: −0.2 ± 2.1 cmH2O
  leak point pressure before drug administration: 59.4 ± 7.0 cmH2O
[1]; [11]
  leak point pressure before drug administration: 54.7 ± 6.1 cmH2O
[1]; antagonist 1 mg/kg, i.v. + WAY-163909 0.3 mg/kg
  leak point pressure before drug administration: 62.5 ± 3.1 cmH2O
[1]; [12]
  leak point pressure before drug administration: 60.7 ± 3.3 cmH2O
[1]; [13]
  leak point pressure before drug administration: 63.6 ± 3.3 cmH2O
[1]; against WAY-161503 (0.3 mg/kg, i.v.)
  dose at which suppression of the leak point pressure increase was significant: 3 mg/kg
[1]; against WAY-163909
  dose at which suppression of the leak point pressure increase was significant: 3 mg/kg
[2]; [5]
  leak point pressure after drug administration: 68.5 ± 6.1 cmH2O
  leak point pressure increase: 20.2 ± 4.1 cmH2O
[2]; [7]
  leak point pressure after drug administration: 50.0 ± 6.3 cmH2O
  leak point pressure increase: 9.7 ± 2.1 cmH2O
[2]; [8]
  leak point pressure after drug administration: 53.0 ± 7.0 cmH2O
  leak point pressure increase: 6.5 ± 2.4 cmH2O
[2]; [11]
  leak point pressure before drug administration: 48.3 ± 7.5 cmH2O
[2]; [12]
  leak point pressure before drug administration: 40.3 ± 5.5 cmH2O
[2]; [13]
  leak point pressure before drug administration: 46.5 ± 5.9 cmH2O
[2]; intravenous, against WAY-161503 (0.3 mg/kg, i.v.) or WAY-163909 (0.3 mg/kg, i.v.)
  dose at which suppression of the leak point pressure increase was significant: 3 mg/kg

## Clc1cccc(N2CCNCC2)c1 [mCPP]
[3]; 0.01 mg/kg
  leak point pressure after drug administration: 49.1 ± 6.4 cmH2O
  leak point pressure increase: 2.8 ± 2.1 cmH2O
[3]; 0.03 mg/kg
  leak point pressure after drug administration: 52.3 ± 4.3 cmH2O
  leak point pressure increase: 14.6 ± 2.7 cmH2O
[3]; 0.1 mg/kg
  leak point pressure after drug administration: 59.7 ± 6.6 cmH2O
  leak point pressure increase: 13.2 ± 2.8 cmH2O
[3]; dose group 0.01 mg/kg
  leak point pressure before drug administration: 46.3 ± 5.8 cmH2O
[3]; dose group 0.03 mg/kg
  leak point pressure before drug administration: 37.7 ± 4.0 cmH2O
[3]; dose group 0.1 mg/kg
  leak point pressure before drug administration: 46.5 ± 6.1 cmH2O
[3]; intravenous administration
  effect on leak point pressure: increased the leak point pressure significantly
[4]; 0.003 mg/kg
  leak point pressure after drug administration: 67.0 ± 5.3 cmH2O
  leak point pressure increase: 4.1 ± 2.1 cmH2O
[4]; 0.01 mg/kg
  leak point pressure after drug administration: 69.3 ± 3.4 cmH2O
  leak point pressure increase: 6.3 ± 2.3 cmH2O
[4]; 0.03 mg/kg
  leak point pressure after drug administration: 73.8 ± 7.1 cmH2O
  leak point pressure increase: 11.6 ± 3.1 cmH2O
[4]; 0.1 mg/kg
  leak point pressure after drug administration: 76.7 ± 4.0 cmH2O
  leak point pressure increase: 13.6 ± 2.5 cmH2O
[4]; 0.3 mg/kg
  leak point pressure after drug administration: 71.1 ± 7.1 cmH2O
  leak point pressure increase: 5.4 ± 2.2 cmH2O
[4]; dose group 0.003 mg/kg
  leak point pressure before drug administration: 62.9 ± 5.0 cmH2O
[4]; dose group 0.01 mg/kg
  leak point pressure before drug administration: 63.0 ± 2.7 cmH2O
[4]; dose group 0.03 mg/kg
  leak point pressure before drug administration: 62.2 ± 4.4 cmH2O
[4]; dose group 0.1 mg/kg
  leak point pressure before drug administration: 63.1 ± 3.9 cmH2O
[4]; dose group 0.3 mg/kg
  leak point pressure before drug administration: 65.7 ± 7.8 cmH2O
[4]; intravenous administration
  effect on leak point pressure: increased the leak point pressure significantly
